Source: patent publication US20240082183A1, “METHODS FOR PREVENTING OR TREATING CONDITIONS RELATED TO T CELL MEDIATED INTESTINAL DISORDERS” (The Regents of the University of Michigan, priority 2021, published 2024)

Assays:
[1] = tested on: primary colonic epithelial cells (PCECs); test: Apoptosis of pre-treated PCECs induced by perforin and Granzyme B; type: cell-based, C57BL/6 mice; conditions: pre-treated 2 hours, then perforin and Granzyme B 4 hours
Experimental: Cell culture: C57BL/6 primary colonic epithelial cells (PCEC, C57-6047, Cell Biologics, Chicago, IL) were cultured in compete epithelial growth medium supplemented with insulin-transferrin-selenium, epidermal growth factor, glutamine, antibiotics, antimycotics and fecal bovine serum (#M6621, Cell Biologics). Cells were routinely tested for mycoplasma contamination using MycoAlert (#LT07-318, Lonza, Switzerland). Cells were treated with Mouse active perforin (#APB317Mu01, Cloud-Clone Corp., Katy, TX) and recombinant mouse Granzyme B (#140-03, PeproTech, Rocky Hill, NJ) for 4 to 6 hours in indicated concentrations following manufacturer's recommendations. Cells were incubated with GDF-15 (#8944-GD-025, 500 pg/mL, R&D Systems, Minneapolis, MN), Tiron (#172553, 10 mM, Sigma-Aldrich, St. Louis, MO), Trolox (#648471, 0.5 mM, Sigma-Aldrich), 4-Octyl itaconate (#SML2338, 0.1 mM, Sigma-Aldrich) and NAD (#N8285, 1 mM, Sigma-Aldrich).

[2] = tested on: GI GVHD in B6 WT recipients; type: in vivo; conditions: for clinical GVHD severity of allogeneic mice vs vehicle / survival of allogeneic mice vs vehicle / survival of syngeneic mice: gavage every other day from day 0 post HCT; for histopathological GVHD severity in the colon and ileum / histopathological GVHD severity in the liver, skin, and lungs: allogeneic recipients, 7 days post HCT
Experimental: (§1) Hematopoietic cell transplantation (HCT): Splenic T cells from donors were enriched, and the BM was depleted of T cells by autoMACS (Miltenyi Biotec, Bergisch Gladbach, Germany) utilizing CD90.2 microbeads (#130-121-278, Miltenyi Biotec). WT B6, C3H.SW, Sdhaf1^−/−, Sdha^Δ/IEC , Irg1h−/−B6 and BALB/c animals were used as recipients and received 1,000 cGy (WT B6, Sdhaf1^−/−and Sdha^Δ/IEC) or 800 cGy (BALB/c) TBI on day −1, respectively, and 1×10^6 (C3H.SW→C57BL/B6 or C57BL/B6→BALB/c), 3×10^6 (BALB/c→C57BL/6, Sdhaf1^−/−, Sdha^Δ/IEC) CD90.2^+T cells along with 5×10^6 T-cell-depleted BM (TCD-BM) cells from either syngeneic or allogeneic donors on day 0. [B6Ly5.2→B6] and [B6 Ly5.2→Sdhaf1^−/−] animals received 900 cGy TBI on day −1 and were injected intravenously with 3×10^6 CD90.2^+T cells and 5×10^6 TCD-BM from either syngeneic B6 or BALB/c donors on day 0. For the chemotherapy conditioning model, B6 WT mice received busulfan (#B2635, 25 mg kg^−1 from day −7 to −4; Sigma-Aldrich) and cyclophosphamide (#C7397, 100 mg kg^−1 from day −3 to −2; Sigma-Aldrich) intraperitoneally, and 1×10^7 (BALB/c→C57BL/6) CD90.2^+T cells along with 1×10^7 TCD-BM cells from either syngeneic or allogeneic donors on day 0. For the no-irradiated model, unirradiated B6D2F1 mice were intravenously injected with 10×10^7 splenocytes from B6D2F1 or B6 donors. Animals received vehicle or dimethyl malonate (DMM, #136441, 0.5 g or 5g kg^−1, Sigma-Aldrich, St. Louis, MO, USA), dimethyl itaconate (DI, #09533, 0.25 g or 2.5g kg^−1, Sigma-Aldrich) or atpenin A5 (#11898, 0.9 μg or 9 μg kg^−1, Cayman Chemical, Ann Arbor, MI, USA) according to manufacturer's instructions by flexible 20-gauge, 1,5-in, intra-gastric gavage needle every other day from day 0. The mice were randomly assigned to syngeneic, allogeneic or treatment groups in each experiment. No mice were excluded from analysis. No statistical methods were used to predetermine sample size. The investigators were not blinded to allocation during experiments and outcome assessment.
Systemic and histopathological analysis of GVHD: Survival after HCT was monitored daily and assessed the degree of clinical GVHD weekly, as described previously^64. Histopathological analysis of the liver, gastrointestinal (GI) tract, and lung, which are the primary GVHD target organs, was performed as described utilizing a semi-quantitative scoring system implemented in a blinded manner by a single pathologist (C.L.)^65. After scoring, the codes were broken, and the data compiled.

[3] = biological target: T1, SDHA (Mus musculus, UniProt Q8K2B3+Q9CQA3+Q9CXV1+Q9CZB0); test: SDH enzyme staining of colon and ileum 12 h after oral gavage; type: in vivo, B6 WT mice; conditions: naive B6 WT, 12 h after administration
T1 construct: from tissue; host or cells: colon and ileum of naive B6 WT mice
Experimental: as §1, with “The mice were randomly assigned to syngeneic, allogeneic or treatment groups in each experiment. No mice were excluded from analysis. No statistical methods were used to predetermine sample size. The investigators were not blinded to allocation during experiments and outcome assessment.” left out
Succinate dehydrogenase functional staining: Specimens were dissected from naïve, syngeneic and allogeneic WT B6 mice at 7 and 21 days post HCT. […] After mounting the slides, images were obtained using Olympus BX51M (Olympus, Japan) and the SDH activity was quantified using Image J (National Institutes of Health, Bethesda, […], USA).

[4] = tested on: primary colonic epithelial cells (PCECs); test: In vitro allogeneic CTL assay, AnnexinV positive cells of Green CMFDA Dye positive PCECs; conditions: PCECs treated 0.2 mM for 2 hours
Experimental: PCECs were pre-treated with 5mM DMM, 0.5mM DI, 10nM atpenin A5 or vehicle for 3 hours.
Flow cytometry: Cells were re-suspended in 2% BSA in PBS and stained with the following antibodies and reagents; FITC-anti-CD326 (G8.8, #118208, 1:200), APC-anti-CD326 (G8.8, #118214, 1:200), DAPI, CellROX Deep Red (#C10491, 500 nM, Thermo Scientific), MitoSOX (#M36008, 5 μM, Thermo Scientific), JC-1 (#M34152, 2 μM, Thermo Scientific), 7-AAD (#420404, 1:100, BioLegend), Annexin V (#640947, 1:20, Biolegend), anti-CD16/CD32 antibody (BD Biosciences, 2.4G2), APC-anti-CD45.2 (#109814, 1:200, BioLegend), and CellTracker Green CMFDA Dye (#C7025, 1 μM, Invitrogen) according to manufacturer's protocol. Cells were run on Attune NxT flow cytometer (Thermo Scientific) and analyzed using FlowJo v10.2 (FlowJo LLC, Ashland, OR).

[5] = tested on: primary colonic epithelial cells (PCECs); test: 51Cr release cytotoxic killing assay, pre-treated PCECs as targets of primed T cells; type: cell-based, B6 WT mice; conditions: for cell death of pre-treated PCECs vs diluent: co-cultured with allo-primed T cells; for apoptosis of pre-treated PCECs: cultured with syngeneic T cells
[6] = tested on: isolated mitochondria of colon; test: ATP detection assay in isolated mitochondria from IECs; type: biochemical, mice; conditions: 21 days post HCT, after malonate treatment
Experimental: Mitochondria Isolation: Isolated IECs from syngeneic and allogeneic recipients in mitochondria isolation buffer (MIB) were disrupted using a glass homogenizer with 2-3 strokes. MIB was composed of 70 mM sucrose (#S0389, Sigma-Aldrich), 210 mM mannitol (#M9546, Sigma-Aldrich), 5 mM HEPES, 1 mM EGTA (#E0396, Sigma-Aldrich), 0.5% BSA, pH 7.2 and protease inhibitor cocktail (#78429, Sigma-Aldrich). Homogenate was centrifuged at 800 g for 10 min at 4° C. Following centrifugation, fat/lipid was carefully aspirated, and the remaining supernatant was decanted through 2 layers of cheesecloth to a separate tube and centrifuged twice at 8000 g for 15 min at 4° C. After removal of the light mitochondrial layer, the pellet was resuspended in MIB and centrifuged at 8500 g for 10 min. The final pellet was resuspended in a minimal volume of mitochondrial assay solution (MAS) and kept on ice. […] Total protein (mg/ml) was determined via Pierce BCA Protein Assay (#23225, Thermo Scientific). […] The ATP level was measured using the Cell Titer Glo 2.0 luminescence assay (#G9243, Promega, Madison, WI). Luminescence was measured for 500 ms using a SpectraMax M3 Microplate reader (Molecular Devices, San Jose, CA).

[7] = tested on: B6 WT mice, colonic IECs; test: DSS chemical induced colitis model; type: in vivo; conditions: twelve days after DSS treatment, vs control animals
Experimental: Colitis models: For the DSS colitis model, animals were provided with drinking water containing 2.5-3% DSS (#0216011010. MP Biomedicals, Santa Ana, CA) for 7 days. Mice were injected with 100 μg of anti-CTLA-4 mAb (#BE0164, clone 9D9, Bio X Cell, West Lebanon, NH) or isotype control (#BE0086, MCP-11, Bio X Cell) twice (3 and 1 day before DSS administration). For the T-cell transfer induced colitis model, isolated splenic T cells from WT B6 and Prf^−/−mice were stained with DAPI (#422801, 1 μM, Biolenged), APC-Cy7 anti-CD4 (#560246, GK1.5, 1:100, BD Biosciences, San Jose, CA), APC anti-CD25 (#101910, 3C7, 1:100, Biolegend), FITC anti-CD44 (#103006, IM7, 1:100, Biolegend) and PE anti-CD45RB (#103308, C363-16A, 1:100, Biolegend). CD4^+CD25^−CD44^−CD45RB^hi cells were sorted with the MoFlo Astrios cell sorter (Beckman Coulter, Indianapolis, IN) and intraperitoneally injected into Rag-1^−/−recipients.
Fluorescent immunohistochemistry staining: Sections were prepared as mentioned in the SDH functional staining method. […] SDH levels were quantified and measured in intensity from Cy3 positive epithelial cells using Image J. For primary mice colonic epithelial cells, cells were spun down and put on coverslips. […]
Succinate quantification: Isolated IECs were collected, processed and analysed using the Succinate Assay Kit (#ab204718, Abcam) according to the manufacturer's protocol.

T1 sequence (Q8K2B3 43-664): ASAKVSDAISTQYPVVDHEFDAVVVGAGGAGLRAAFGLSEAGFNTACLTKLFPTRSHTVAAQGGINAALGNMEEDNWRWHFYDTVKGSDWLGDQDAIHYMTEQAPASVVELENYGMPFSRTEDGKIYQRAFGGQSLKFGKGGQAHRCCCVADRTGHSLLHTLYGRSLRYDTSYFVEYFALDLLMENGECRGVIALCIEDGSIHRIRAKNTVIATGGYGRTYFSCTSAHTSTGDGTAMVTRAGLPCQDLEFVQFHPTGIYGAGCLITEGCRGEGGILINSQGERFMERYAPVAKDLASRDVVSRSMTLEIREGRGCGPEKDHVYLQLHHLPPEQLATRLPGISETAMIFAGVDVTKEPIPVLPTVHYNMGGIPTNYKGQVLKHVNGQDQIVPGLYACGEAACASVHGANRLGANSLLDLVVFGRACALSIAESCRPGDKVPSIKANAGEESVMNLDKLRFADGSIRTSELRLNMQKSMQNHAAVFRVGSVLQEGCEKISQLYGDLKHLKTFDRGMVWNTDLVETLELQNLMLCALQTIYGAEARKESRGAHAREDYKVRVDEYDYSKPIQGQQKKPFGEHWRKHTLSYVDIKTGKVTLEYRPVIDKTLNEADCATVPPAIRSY
T1 sequence (Q9CQA3 31-282): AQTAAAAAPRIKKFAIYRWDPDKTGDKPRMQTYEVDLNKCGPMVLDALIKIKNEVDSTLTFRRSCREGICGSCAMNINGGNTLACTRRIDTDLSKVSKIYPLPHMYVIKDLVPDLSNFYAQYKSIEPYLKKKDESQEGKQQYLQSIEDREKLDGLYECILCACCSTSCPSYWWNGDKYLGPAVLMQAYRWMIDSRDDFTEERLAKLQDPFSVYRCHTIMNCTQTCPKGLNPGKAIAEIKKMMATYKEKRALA
T1 sequence (Q9CZB0 30-169): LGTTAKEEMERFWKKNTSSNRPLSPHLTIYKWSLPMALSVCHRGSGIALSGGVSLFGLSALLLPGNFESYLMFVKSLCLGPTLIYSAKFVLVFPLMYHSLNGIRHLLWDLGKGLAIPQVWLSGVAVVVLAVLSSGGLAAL
T1 sequence (Q9CXV1 57-159): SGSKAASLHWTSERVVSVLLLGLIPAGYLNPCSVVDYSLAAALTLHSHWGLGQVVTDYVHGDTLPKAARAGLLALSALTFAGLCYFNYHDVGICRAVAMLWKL

Compound: Cc1c(C)c2c(c(C)c1O)CCC(C)(C(=O)O)O2 (stereo not shown) [Trolox]
- apoptosis of PCECs induced by GranzymeB and perforin [1]: did not reduce apoptosis

Compound: COc1[nH]c(=O)c(C(=O)[C@@H](C)C[C@H](C)[C@@H](Cl)CCl)c(O)c1OC [atpenin A5]
- clinical GVHD severity of allogeneic mice vs vehicle [2]: more severe GVHD symptoms
- survival of allogeneic mice vs vehicle [2]: died significantly faster
- survival of syngeneic mice [2]: survived
- SDHA function (SDH enzymatic staining) [3]: inhibited SDHA function

Compound: C=C(CC(=O)OCCCCCCCC)C(=O)O [4-octyl itaconate, 4-Octyl itaconate]
- susceptibility to T cell mediated cytotoxicity [4]: enhance susceptibility to T cell mediated cytotoxicity

Compound: O=S(=O)(O)c1cc(O)c(O)c(S(=O)(=O)O)c1 [Tiron]
- apoptosis of PCECs induced by GranzymeB and perforin [1]: did not reduce apoptosis

Compound: C=C(CC(=O)OC)C(=O)OC [itaconate, dimethyl itaconate]
- histopathological GVHD severity in the colon and ileum [2]: increased GVHD severity
- histopathological GVHD severity in the liver, skin, and lungs [2]: not in the liver, skin, and lungs
- clinical GVHD severity of allogeneic mice vs vehicle [2]: more severe GVHD symptoms
- survival of allogeneic mice vs vehicle [2]: died significantly faster
- cell death of pre-treated PCECs vs diluent [5]: significantly higher levels of cell death
- apoptosis of pre-treated PCECs [5]: no increase in apoptosis
- SDHA function (SDH enzymatic staining) [3]: inhibited SDHA function

Compound: COC(=O)CC(=O)OC [malonate, dimethyl malonate]
- histopathological GVHD severity in the colon and ileum [2]: increased GVHD severity
- histopathological GVHD severity in the liver, skin, and lungs [2]: not in the liver, skin, and lungs
- clinical GVHD severity of allogeneic mice vs vehicle [2]: more severe GVHD symptoms
- survival of allogeneic mice vs vehicle [2]: died significantly faster
- survival of syngeneic mice [2]: survived
- ATP production, difference between mitochondria from allogeneic and syngeneic/naive animals [6]: difference diminished
- cell death of pre-treated PCECs vs diluent [5]: significantly higher levels of cell death
- apoptosis of pre-treated PCECs [5]: no increase in apoptosis
- SDHA function (SDH enzymatic staining) [3]: inhibited SDHA function

Compound: dextran sulfate sodium [DSS]
- SDHA levels in colonic IECs [7]: similar
- succinate levels in colonic IECs [7]: similar
